Results from ChEMBL document CHEMBL5104127, “Design and preparation of N-linked hydroxypyridine-based APJ agonists” (Bioorg Med Chem Lett, 2022).

Key:
Apelin receptor = target: T1, Apelin receptor (Homo sapiens, UniProt P35414); test: Agonist activity at human APJ receptor expressed in HEK293 cells assessed as compound stimulated inhibition of forskolin stimulated cAMP production incubated for 30 mins and measured by fluorescence based assay; format: functional, cell-based
T1 sequence (P35414 whole entry): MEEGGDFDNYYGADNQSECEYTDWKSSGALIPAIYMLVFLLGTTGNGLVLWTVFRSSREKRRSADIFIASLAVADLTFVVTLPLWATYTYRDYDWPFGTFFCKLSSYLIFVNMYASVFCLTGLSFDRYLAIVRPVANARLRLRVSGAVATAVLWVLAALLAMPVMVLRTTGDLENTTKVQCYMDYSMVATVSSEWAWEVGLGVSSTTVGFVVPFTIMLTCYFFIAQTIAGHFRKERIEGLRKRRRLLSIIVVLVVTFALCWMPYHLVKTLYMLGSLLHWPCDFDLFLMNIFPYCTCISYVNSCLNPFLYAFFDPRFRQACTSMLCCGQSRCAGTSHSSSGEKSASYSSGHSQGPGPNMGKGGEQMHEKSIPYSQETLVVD

[1] = Metabolic stability in rat liver microsomes incubated for 10 mins and assessed as compound remaining; format: ADME, Microsome; settings: read-out: Stability
[2] = Metabolic stability in human liver microsomes incubated for 10 mins and assessed as compound remaining; format: ADME, Microsome; settings: read-out: Stability
[3] = Cmax in rat at 1 mg/kg, po; format: ADME, organism-based; parameters: dose 1 mg/kg, route po; settings: in vivo
[4] = AUC in rat at 1 mg/kg, po; format: ADME, organism-based; parameters: dose 1 mg/kg, route po; settings: in vivo

Row | EC50 (Apelin receptor) [nM] | remaining at 10 min [1] [%] | remaining at 10 min [2] [%] | Cmax [3] [µM] | AUC [4] [µM·h] | Structure (SMILES)
1 | > 75 | – | – | – | – | CCCCc1nc(O)c(C(=O)N2CC[C@H](c3ccccc3)C2)c(O)c1N(C)c1cccc(OC)c1
2 | 0.24 | – | – | – | – | CCCCc1nc(O)c(C(=O)N2CCC(c3ncc(F)cc3F)C2)c(O)c1N(CC)c1ccccc1 (stereo unspecified)
3 | 38 | – | – | – | – | CCCCc1nc(O)c(C(=O)N2CC[C@H](c3ccccc3)C2)c(O)c1N(C)c1ccccc1
4 | 0.1 | 7 | 57 | – | – | CCN(c1ccccc1)c1c(-c2cccc(C)c2)nc(O)c(C(=O)N2CCC(c3ncc(F)cc3F)C2)c1O (stereo unspecified)
5 | 13 | 7 | 27 | – | – | CCCCc1nc(O)c(C(=O)N2CC[C@H](c3ccccc3)C2)c(O)c1N(CC)c1ccccc1
6 | 0.28 | 26 | 62 | – | – | CCCCc1nc(O)c(C(=O)N2CCC(c3ccc(Cl)cn3)C2)c(O)c1N(CC)c1ccccc1 (stereo unspecified)
7 | 0.24 | 12 | 53 | – | – | CCCCc1nc(O)c(C(=O)N2CCC(c3ncc(Cl)cc3F)C2)c(O)c1N(CC)c1ccccc1 (stereo unspecified)
8 | 16 | – | – | – | – | CCCCc1nc(O)c(C(=O)N2CCN(Cc3cccc(Cl)c3Cl)CC2)c(O)c1N(CC)c1ccccc1
9 | > 150 | – | – | – | – | CCCCc1nc(O)c(C(=O)N2CC[C@H](c3ccccc3)C2)c(O)c1N1CCCc2ccccc21
10 | 62 | – | – | – | – | CCCCc1nc(O)c(C(=O)N2CC[C@H](c3ccccc3)C2)c(O)c1N(C)c1ccc(OC)cc1
11 | 35 | – | – | – | – | CCCCc1nc(O)c(C(=O)N2CC[C@H](c3ccccc3)C2)c(O)c1N(c1ccccc1)C(C)C
12 | 0.3 | 82 | 87 | 5.2 | 4.8 | CCN(c1ccccc1)c1c(-c2ccn(C)n2)nc(O)c(C(=O)N2CCC(c3ncc(F)cc3F)C2)c1O (stereo unspecified)
13 | 13 | – | – | – | – | CCN(c1ccccc1)c1c(CC2CC2)nc(O)c(C(=O)N2CCC(c3ncc(F)cc3F)C2)c1O (stereo unspecified)
14 | 21 | – | – | – | – | CCCCc1nc(O)c(C(=O)N2CC[C@H](c3ccccc3)C2)c(O)c1N1CCc2ccccc21
15 | 12 | 17 | 56 | – | – | CCCCc1nc(O)c(C(=O)N2CC[C@@H](c3ccccc3)C2)c(O)c1N(CC)c1ccccc1
16 | > 75 | – | – | – | – | CCCCc1nc(O)c(C(=O)N2CC[C@H](c3ccccc3)C2)c(O)c1N(C)c1ccccc1OC
17 | 8.4 | – | – | – | – | CCCCc1nc(O)c(C(=O)N2CCC(c3ccccc3F)C2)c(O)c1N(CC)c1ccccc1 (stereo unspecified)
